Test results reported in PubChem BioAssay (NCI).
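Compound exposure: 48 hours, 5 concentrations, 96-well plates. GI50 marks 50% less growth. TGI: concentration producing complete growth inhibition.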

Assays:
Experiment in all cases: NCI anticancer screen, dose series, 48 h
786-0 renal = test system: 786-0 renal
A498 renal = test system: A498 renal
A549 NSCLC = test system: A549 NSCLC
ACHN renal = test system: ACHN renal
BT-549 breast = test system: BT-549 breast
CAKI-1 renal = test system: CAKI-1 renal
COLO 205 colon = test system: COLO 205 colon
DU-145 prostate = test system: DU-145 prostate
EKVX NSCLC = test system: EKVX NSCLC
HCC-2998 colon = test system: HCC-2998 colon
HCT-116 colon = test system: HCT-116 colon
HCT-15 colon = test system: HCT-15 colon
HOP-62 NSCLC = test system: HOP-62 NSCLC
HOP-92 NSCLC = test system: HOP-92 NSCLC
HS 578T breast = test system: HS 578T breast
HT29 colon = test system: HT29 colon
IGROV1 ovarian = test system: IGROV1 ovarian
KM12 colon = test system: KM12 colon
LOX IMVI melanoma = test system: LOX IMVI melanoma
M14 melanoma = test system: M14 melanoma
MALME-3M melanoma = test system: MALME-3M melanoma
MCF7 breast = test system: MCF7 breast
MDA-MB-231 breast = test system: MDA-MB-231 breast
MDA-MB-435 = test system: MDA-MB-435
NCI-H226 lung = test system: NCI-H226 lung
NCI-H23 lung = test system: NCI-H23 lung
NCI-H460 lung = test system: NCI-H460 lung
NCI-H522 lung = test system: NCI-H522 lung
NCI/ADR-RES ovarian = test system: NCI/ADR-RES ovarian
OVCAR-3 ovarian = test system: OVCAR-3 ovarian
OVCAR-4 ovarian = test system: OVCAR-4 ovarian
OVCAR-5 ovarian = test system: OVCAR-5 ovarian
OVCAR-8 ovarian = test system: OVCAR-8 ovarian
PC-3 prostate = test system: PC-3 prostate
RPMI-8226 leukemia = test system: RPMI-8226 leukemia
RXF 393 renal = test system: RXF 393 renal
SF-268 CNS = test system: SF-268 CNS
SF-295 CNS = test system: SF-295 CNS
SF-539 CNS = test system: SF-539 CNS
SK-MEL-2 melanoma = test system: SK-MEL-2 melanoma
SK-MEL-28 melanoma = test system: SK-MEL-28 melanoma
SK-MEL-5 melanoma = test system: SK-MEL-5 melanoma
SK-OV-3 ovarian = test system: SK-OV-3 ovarian
SN12C renal = test system: SN12C renal
SNB-19 CNS = test system: SNB-19 CNS
SNB-75 CNS = test system: SNB-75 CNS
SW-620 colon = test system: SW-620 colon
T-47D breast = test system: T-47D breast
TK-10 renal = test system: TK-10 renal
U251 CNS = test system: U251 CNS
UACC-257 melanoma = test system: UACC-257 melanoma
UACC-62 melanoma = test system: UACC-62 melanoma
UO-31 renal = test system: UO-31 renal

**Q.** With `Cc1cccc(Cn2cc(CO)c3cnccc32)c1` as the compound, how does the GI50 (786-0 renal) read?
**A.** > 100 µM

**Q.** And the TGI (786-0 renal)?
**A.** > 100 µM

**Q.** What about the GI50 (A498 renal) of the same compound?
**A.** 10 µM

**Q.** What about the TGI (A498 renal) of the same compound?
**A.** 26.7 µM

**Q.** What about the GI50 (A549 NSCLC) of the same compound?
**A.** > 100 µM

**Q.** What about the TGI (A549 NSCLC) of the same compound?
**A.** > 100 µM

**Q.** What about the GI50 (ACHN renal) of the same compound?
**A.** > 100 µM

**Q.** And the TGI (ACHN renal)?
**A.** > 100 µM

**Q.** What about the GI50 (BT-549 breast) of the same compound?
**A.** 35.7 µM

**Q.** And the TGI (BT-549 breast)?
**A.** > 100 µM

**Q.** What about the GI50 (CAKI-1 renal) of the same compound?
**A.** > 100 µM

**Q.** What about the TGI (CAKI-1 renal) of the same compound?
**A.** > 100 µM

**Q.** What about the GI50 (COLO 205 colon) of the same compound?
**A.** > 100 µM

**Q.** And the TGI (COLO 205 colon)?
**A.** > 100 µM

**Q.** And the GI50 (DU-145 prostate)?
**A.** > 100 µM

**Q.** What about the TGI (DU-145 prostate) of the same compound?
**A.** > 100 µM

**Q.** And the GI50 (EKVX NSCLC)?
**A.** 20.9 µM

**Q.** What about the TGI (EKVX NSCLC) of the same compound?
**A.** > 100 µM

**Q.** What about the GI50 (HCC-2998 colon) of the same compound?
**A.** > 100 µM

**Q.** What about the TGI (HCC-2998 colon) of the same compound?
**A.** > 100 µM

**Q.** And the GI50 (HCT-116 colon)?
**A.** 36.8 µM

**Q.** What about the TGI (HCT-116 colon) of the same compound?
**A.** > 100 µM

**Q.** And the GI50 (HCT-15 colon)?
**A.** > 100 µM

**Q.** And the TGI (HCT-15 colon)?
**A.** > 100 µM

**Q.** And the GI50 (HOP-62 NSCLC)?
**A.** > 100 µM

**Q.** What about the TGI (HOP-62 NSCLC) of the same compound?
**A.** > 100 µM

**Q.** What about the GI50 (HOP-92 NSCLC) of the same compound?
**A.** 7.88 µM

**Q.** And the TGI (HOP-92 NSCLC)?
**A.** 79.4 µM

**Q.** And the GI50 (HS 578T breast)?
**A.** > 100 µM

**Q.** What about the TGI (HS 578T breast) of the same compound?
**A.** > 100 µM

**Q.** What about the GI50 (HT29 colon) of the same compound?
**A.** 67.2 µM

**Q.** And the TGI (HT29 colon)?
**A.** > 100 µM

**Q.** What about the GI50 (IGROV1 ovarian) of the same compound?
**A.** 44.8 µM

**Q.** What about the TGI (IGROV1 ovarian) of the same compound?
**A.** > 100 µM

**Q.** What about the GI50 (KM12 colon) of the same compound?
**A.** 85.6 µM

**Q.** And the TGI (KM12 colon)?
**A.** > 100 µM

**Q.** What about the GI50 (LOX IMVI melanoma) of the same compound?
**A.** 67.3 µM

**Q.** And the TGI (LOX IMVI melanoma)?
**A.** > 100 µM

**Q.** And the GI50 (M14 melanoma)?
**A.** > 100 µM

**Q.** What about the TGI (M14 melanoma) of the same compound?
**A.** > 100 µM

**Q.** And the GI50 (MALME-3M melanoma)?
**A.** 64.6 µM

**Q.** What about the TGI (MALME-3M melanoma) of the same compound?
**A.** > 100 µM

**Q.** And the GI50 (MCF7 breast)?
**A.** 51.3 µM

**Q.** What about the TGI (MCF7 breast) of the same compound?
**A.** > 100 µM

**Q.** What about the GI50 (MDA-MB-231 breast) of the same compound?
**A.** > 100 µM

**Q.** And the TGI (MDA-MB-231 breast)?
**A.** > 100 µM

**Q.** What about the GI50 (MDA-MB-435) of the same compound?
**A.** 49.7 µM

**Q.** What about the TGI (MDA-MB-435) of the same compound?
**A.** > 100 µM

**Q.** And the GI50 (NCI-H226 lung)?
**A.** 32 µM

**Q.** And the TGI (NCI-H226 lung)?
**A.** > 100 µM

**Q.** What about the GI50 (NCI-H23 lung) of the same compound?
**A.** 19.2 µM

**Q.** What about the TGI (NCI-H23 lung) of the same compound?
**A.** > 100 µM

**Q.** And the GI50 (NCI-H460 lung)?
**A.** 57.5 µM

**Q.** And the TGI (NCI-H460 lung)?
**A.** > 100 µM

**Q.** What about the GI50 (NCI-H522 lung) of the same compound?
**A.** 60.3 µM

**Q.** What about the TGI (NCI-H522 lung) of the same compound?
**A.** > 100 µM

**Q.** What about the GI50 (NCI/ADR-RES ovarian) of the same compound?
**A.** 55.2 µM

**Q.** What about the TGI (NCI/ADR-RES ovarian) of the same compound?
**A.** > 100 µM

**Q.** And the GI50 (OVCAR-3 ovarian)?
**A.** 40.1 µM

**Q.** And the TGI (OVCAR-3 ovarian)?
**A.** > 100 µM

**Q.** And the GI50 (OVCAR-4 ovarian)?
**A.** 78.3 µM

**Q.** And the TGI (OVCAR-4 ovarian)?
**A.** > 100 µM

**Q.** What about the GI50 (OVCAR-5 ovarian) of the same compound?
**A.** > 100 µM

**Q.** And the TGI (OVCAR-5 ovarian)?
**A.** > 100 µM

**Q.** And the GI50 (OVCAR-8 ovarian)?
**A.** 53.7 µM

**Q.** And the TGI (OVCAR-8 ovarian)?
**A.** > 100 µM

**Q.** What about the GI50 (PC-3 prostate) of the same compound?
**A.** 28.2 µM

**Q.** What about the TGI (PC-3 prostate) of the same compound?
**A.** > 100 µM

**Q.** What about the GI50 (RPMI-8226 leukemia) of the same compound?
**A.** 3.82 µM

**Q.** And the TGI (RPMI-8226 leukemia)?
**A.** 72.9 µM

**Q.** And the GI50 (RXF 393 renal)?
**A.** > 100 µM

**Q.** What about the TGI (RXF 393 renal) of the same compound?
**A.** > 100 µM

**Q.** And the GI50 (SF-268 CNS)?
**A.** > 100 µM

**Q.** What about the TGI (SF-268 CNS) of the same compound?
**A.** > 100 µM

**Q.** And the GI50 (SF-295 CNS)?
**A.** 12.4 µM

**Q.** And the TGI (SF-295 CNS)?
**A.** 76.7 µM

**Q.** What about the GI50 (SF-539 CNS) of the same compound?
**A.** > 100 µM

**Q.** And the TGI (SF-539 CNS)?
**A.** > 100 µM

**Q.** And the GI50 (SK-MEL-2 melanoma)?
**A.** > 100 µM

**Q.** What about the TGI (SK-MEL-2 melanoma) of the same compound?
**A.** > 100 µM

**Q.** And the GI50 (SK-MEL-28 melanoma)?
**A.** > 100 µM

**Q.** What about the TGI (SK-MEL-28 melanoma) of the same compound?
**A.** > 100 µM

**Q.** What about the GI50 (SK-MEL-5 melanoma) of the same compound?
**A.** 24.1 µM

**Q.** What about the TGI (SK-MEL-5 melanoma) of the same compound?
**A.** > 100 µM

**Q.** And the GI50 (SK-OV-3 ovarian)?
**A.** > 100 µM

**Q.** And the TGI (SK-OV-3 ovarian)?
**A.** > 100 µM

**Q.** What about the GI50 (SN12C renal) of the same compound?
**A.** > 100 µM

**Q.** And the TGI (SN12C renal)?
**A.** > 100 µM

**Q.** What about the GI50 (SNB-19 CNS) of the same compound?
**A.** > 100 µM

**Q.** What about the TGI (SNB-19 CNS) of the same compound?
**A.** > 100 µM

**Q.** What about the GI50 (SNB-75 CNS) of the same compound?
**A.** 69.4 µM

**Q.** What about the TGI (SNB-75 CNS) of the same compound?
**A.** > 100 µM

**Q.** What about the GI50 (SW-620 colon) of the same compound?
**A.** > 100 µM

**Q.** What about the TGI (SW-620 colon) of the same compound?
**A.** > 100 µM

**Q.** And the GI50 (T-47D breast)?
**A.** 47.2 µM

**Q.** What about the TGI (T-47D breast) of the same compound?
**A.** > 100 µM

**Q.** And the GI50 (TK-10 renal)?
**A.** 64.7 µM

**Q.** And the TGI (TK-10 renal)?
**A.** > 100 µM

**Q.** And the GI50 (U251 CNS)?
**A.** 62.5 µM

**Q.** And the TGI (U251 CNS)?
**A.** > 100 µM

**Q.** And the GI50 (UACC-257 melanoma)?
**A.** 44.2 µM

**Q.** What about the TGI (UACC-257 melanoma) of the same compound?
**A.** > 100 µM

**Q.** And the GI50 (UACC-62 melanoma)?
**A.** 75.4 µM

**Q.** And the TGI (UACC-62 melanoma)?
**A.** > 100 µM

**Q.** What about the GI50 (UO-31 renal) of the same compound?
**A.** 46.4 µM

**Q.** And the TGI (UO-31 renal)?
**A.** > 100 µM
